# Test results: patent US12643892B2, “Pyridazinone compounds for the treatment of neuromuscular diseases” (Edgewise Therapeutics, Inc., priority 2020, dated 2026)
# Target: Skeletal Myofibril ATPase (Rabbit Psoas myofibrils)
# Assay: Skeletal Myofibril ATPase Assay
# Format: biochemical
# Conditions: PK/LDH-coupled NADH absorbance at 340 nm
# Protocol: Overview: Myosin ATPase activity was assessed by using a coupled reaction system, in which ADP generated by the myosin ATPase function was coupled to the disappearance of NADH through the pyruvate kinase/lactate dehydrogenase (PK-LDH) system. Myosin ATPase activity produces ADP, which was used as a substrate for PK to produce pyruvate and regenerate ATP. The pyruvate was then used as a substrate by LDH to oxidize NADH to NAD+. The rate of the reaction was monitored through the time-dependent disappearance of NADH using absorbance at 340 nm. Inhibition of ATPase activity by the assayed compounds was indicated by a reduced rate of NADH loss, relative to vehicle-treated controls, over the experimental time window. To assess the selectivity of the assayed compounds for skeletal myofibrils, the compounds were counter-screened in cardiac myofibrils.
# Materials: The following stock solutions and reagents were used in the Skeletal Myofibril ATPase Assay:
# Stock Solutions of pCa buffer. Combine PIPES, CaCl2, and EGTA solutions with 70 mL of water. Adjust pH to 7.0 and bring final volume to 100 mL.
# Buffer A & Buffer B. Buffers were stored on ice until use.
# Skeletal Myofibril ATPase Assay Procedure: BSA, ATP, NADH, PEP, and DTT solutions were thawed at room temperature, then transferred to ice. Pellet-frozen myofibrils (approximately twice the required volume) were transferred into a sufficiently large tube and capped. Myofibrils were thawed by rolling in a water bath for approximately 15 min at room temperature and cooled on ice. Buffers A and B were prepared by adjusting volumes as necessary for required number of wells and stored on ice. 0.5 μL of the compounds to be assayed were added into wells of a 384-well plate. Buffers A and B were mixed by inversion immediately prior to use, then 25 μL of each was dispensed using a Multidrop dispenser (Buffer A first, then Buffer B). The absorbance within the wells was measured at 340 nm, using a kinetic protocol in which the wells are read every 1.5-2 min for 1 h. The reaction rate was qualitatively assessed by subtracting the minimum absorbance value from the maximum value for each well, using either the SoftMax Pro plate reader software or a spreadsheet program such as Excel. Using GraphPad Prism 8.0, the data was normalized, with 100% activity defined as the absorbance change in the 1% DMSO vehicle wells and 0% assigned to no change in absorbance over the course of the experiment. The normalized data were fit to a variable-slope four-parameter logistic model, constraining the bottom to be 0 or greater. Compounds of Table 1 to 3 were tested and results of the assay appear in Table 4 herein. A=IC50 is less than or equal to 10 μM; B=IC50 is greater than 10 μM and less than 100 μM; C=IC50 is greater than 100 μM.
row,SMILES,IC50 [µM]
1,"O=c1ccc(-c2nc(-c3cccc(Cl)c3)no2)cn1Cc1cncc(F)c1 [Compound 86, 5-(3-(3-chlorophenyl)-1,2,4-oxadiazol-5-yl)-1-((5-fluoropyridin-3-yl)methyl)pyridin-2(1H)-one]",≤ 10
2,"CCCCn1nc(-c2nc(-c3ccc(F)cc3)no2)ccc1=O [Compound 76, 2-butyl-6-(3-(4-fluorophenyl)-1,2,4-oxadiazol-5-yl)pyridazin-3(2H)-one]",≤ 10
3,"Cc1cncc(Cn2cc(-c3nc(-c4cccc(C)c4)no3)ccc2=O)c1 [Compound 95, 1-((5-methylpyridin-3-yl)methyl)-5-(3-(m-tolyl)-1,2,4-oxadiazol-5-yl)pyridin-2(1H)-one]",≤ 10
4,"CCNC(=O)Cn1nc(-c2nc(-c3ccc(F)c(F)c3)no2)ccc1=O [Compound 8, 2-(3-(3-(3,4-difluorophenyl)-1,2,4-oxadiazol-5-yl)-6-oxopyridazin-1(6H)-yl)-N-ethylacetamide]",≤ 10
5,"CCNC(=O)Cn1nc(-c2nc(-c3cccc(OC)c3)no2)ccc1=O [Compound 4, N-ethyl-2-(3-(3-(3-methoxyphenyl)-1,2,4-oxadiazol-5-yl)-6-oxopyridazin-1(6H)-yl)acetamide]",≤ 10
6,"Cc1cc(Cn2nc(-c3nc(-c4cccc(Cl)c4)no3)ccc2=O)on1 [Compound 63, 6-(3-(3-chlorophenyl)-1,2,4-oxadiazol-5-yl)-2-((3-methylisoxazol-5-yl)methyl)pyridazin-3(2H)-one]",≤ 10
7,"O=C(Cn1nc(-c2nc(-c3cccc(Cl)c3)no2)ccc1=O)NC1CCC1 [Compound 5, 2-(3-(3-(3-chlorophenyl)-1,2,4-oxadiazol-5-yl)-6-oxopyridazin-1(6H)-yl)-N-cyclobutylacetamide]",≤ 10
8,"O=c1ccc(-c2nc(-c3cccc(Cl)c3)no2)cn1Cc1cccnc1 [Compound 91, 5-(3-(3-chlorophenyl)-1,2,4-oxadiazol-5-yl)-1-(pyridin-3-ylmethyl)pyndin-2(1H)-one]",≤ 10
9,"CCNC(=O)Cn1nc(-c2nc(-c3cccc(OC(F)(F)F)c3)no2)ccc1=O [Compound 6, N-ethyl-2-(6-oxo-3-(3-(3-(trifluoromethoxy)phenyl)-1,2,4-oxadiazol-5-yl)pyridazm-1(6H)-yl)acetamide]",≤ 10
10,"Cc1cccc(-c2noc(-c3ccc(=O)n(Cc4cncnc4)c3)n2)c1 [Compound 105, 1-(pyrimidin-5-ylmethyl)-5-(3-(m-tolyl)-1,2,4-oxadiazol-5-yl)pyridin-2(1H)-one]",≤ 10
11,"Cc1cccc(-c2noc(-c3ccc(=O)n(Cc4cccnc4C#N)c3)n2)c1 [Compound 112, 3-((2-oxo-5-(3-(m-tolyl)-1,2,4-oxadiazol-5-yl)pyridin-1(2H)-yl)methyl)picolinonitrile]",> 120
12,"COc1ncccc1Cn1cc(-c2nc(-c3cccc(C)c3)no2)ccc1=O [Compound 121, 1-((2-methoxypyridin-3-yl)methyl)-5-(3-(m-tolyl)-1,2,4-oxadiazol-5-yl)pyridin-2(1H)-one]",> 120
13,"O=c1ccc(-c2nc(-c3cccc(Cl)c3)no2)cn1Cc1cncnc1 [Compound 85, 5-(3-(3-chlorophenyl)-l,2,4-oxadiazol-5-yl)-1-(pyrimidin-5-ylmethyl)pyridin-2(1H)-one]",≤ 10
14,"O=c1ccc(-c2nc(-c3cccc(Cl)c3)no2)nn1Cc1cncc(F)c1 [Compound 64, 6-(3-(3-chlorophenyl)-1,2,4-oxadiazol-5-yl)-2-((5-fluoropyridin-3-yl)methyl)pyridazin-3(2H)-one]",≤ 10
15,"Cc1cccc(-c2noc(-c3ccc(=O)n(Cc4ccc(Cl)nc4)c3)n2)c1 [Compound 87, 1-((6-chloropyridin-3-yl)methyl)-5-(3-(m-tolyl)-1,2,4-oxadiazol-5-yl)pyridin-2(1H)-one]",≤ 10
16,"COc1cccc(-c2noc(-c3ccc(=O)n(Cc4cccnc4)c3)n2)c1 [Compound 101, 5-(3-(3-methoxyphenyl)-1,2,4-oxadiazol-5-yl)-1-(pyridin-3-ylmethyl)pyridin-2(1H)-one]",≤ 10
17,"CCCNC(=O)Cn1nc(-c2nc(-c3cccnc3)no2)ccc1=O [Compound 50, 2-(6-oxo-3-(3-(pyridin-3-yl)-1,2,4-oxadiazol-5-yl)pyridazin-1(6H)-yl)-N-propylacetamide]",10 to 100
18,"Cc1cccc(-c2noc(-c3ccc(=O)n(Cc4cncc(C#N)c4)c3)n2)c1 [Compound 98, 5-((2-oxo-5-(3-(m-tolyl)-1,2,4-oxadiazol-5-yl)pyridin-1(2H)-yl)methyl)nicotinoni trile]",≤ 10
19,"CCNC(=O)Cn1nc(-c2nc(-c3cccc(C(F)(F)F)c3)no2)ccc1=O [Compound 11, N-ethyl-2-(6-oxo-3-(3-(3-(trifluoromethyl)phenyl)-1,2,4-oxadiazol-5-yl)pyridazin-1(6H)-yl)acetamide]",≤ 10
20,"CCNC(=O)Cn1nc(-c2nc(C3CC3)no2)ccc1=O [Compound 15, 2-(3-(3-cyclopropyl-1,2,4-oxadiazol-5-yl)-6-oxopyridazin-1(6H)-yl)-N-ethylacetamide]",10 to 100
21,"CCNC(=O)Cn1nc(-c2nc(-c3cccnc3)no2)ccc1=O [Compound 13, N-ethyl-2-(6-oxo-3-(3-(pyridin-3-yl)-1,2,4-oxadiazol-5-yl)pyridazin-1(6H)-yl)acetamide]",10 to 100
22,"O=c1ccc(-c2nc(-c3cnccn3)no2)cn1Cc1ccccc1F [Compound 116, 1-(2-fluorobenzyl)-5-(3-(pyrazin-2-yl)-1,2,4-oxadiazol-5-yl)pyridin-2(1H)-one]",> 120

# Now from value to compound:
row,IC50 [µM],SMILES
1,10 to 100,"O=C(Cn1nc(-c2cccs2)ccc1=O)Nc1ccccc1F [Compound 41, N-(2-fluorophenyl)-2-(6-oxo-3-(thiophen-2-yl)pyridazin-1(6H)-yl)acetamide]"
2,≤ 10,"CCNC(=O)Cn1nc(-c2nc(-c3cccc(Cl)c3)co2)ccc1=O [Compound 30, 2-(3-(4-(3-chlorophenyl)oxazol-2-yl)-6-oxopyridazin-1(6H)-yl)-N-ethylacetamide]"
3,10 to 100,"COc1ccccc1NC(=O)Cn1nc(-c2cccs2)ccc1=O [Compound 40, N-(2-methoxypheny1)-2-(6-oxo-3-(thiophen-2-yl)pyridazin-1(6H)-yl)acetamide]"
4,≤ 10,"CCNC(=O)Cn1nc(-c2nc(-c3cc(Cl)ccc3F)no2)ccc1=O [Compound 1, 2-(3-(3-(5-chloro-2-fluorophenyl)-1,2,4-oxadiazol-5-yl)-6-oxopyridazin-1(6H)-yl)-N-ethylacetamide]"
5,≤ 10,"Cc1ccc(-c2ccc(=O)n(CC(=O)NC(C)C)n2)s1 [Compound 33, N-isopropyl-2-(3-(5-methylthiophen-2-yl)-6-oxopyridazin-1(6H)-yl)acetamide]"
6,> 100,"O=C(Cn1nc(-c2cccs2)ccc1=O)Nc1ccc2c(c1)OCO2 [Compound 47, N-(benzo[d][1,3]dioxol-5-yl)-2-(6-oxo-3-(thiophen-2-yl)pyridazin-1(6H)-yl)acetamide]"
7,> 100,"O=C(Cn1nc(-c2ccco2)ccc1=O)NCc1ccccc1F [Compound 53, N-(2-fluorobenzyl)-2-(3-(furan-2-yl)-6-oxopyridazin-1(6H)-yl)acetamide]"
8,≤ 10,"CCNC(=O)Cn1nc(-c2nc(-c3cccc(Cl)c3)no2)ccc1=O [Compound 14, 2-(3-(3-(3-chlorophenyl)-1,2,4-oxadiazol-5-yl)-6-oxopyridazin-1(6H)-yl)-N-ethylacetamide]"
9,> 100,"O=C(Cn1nc(-c2cccs2)ccc1=O)Nc1ccc2c(c1)OCCO2 [Compound 46, N-(2,3-dihydrobenzo[b][1,4]dioxin-6-yl)-2-(6-oxo-3-(thiophen-2-yl)pyridazin-1(6H)-yl)acetamide]"
10,10 to 100,"O=C(Cn1nc(-c2cccs2)ccc1=O)Nc1ccccc1Cl [Compound 37, N-(2-chlorophenyl)-2-(6-oxo-3-(thiophen-2-yl)pyridazin-1(6H)-yl)acetamide]"
11,≤ 10,"CCNC(=O)Cn1nc(-c2noc(-c3cccc(Cl)c3)n2)ccc1=O [Compound 31, 2-(3-(5-(3-chlorophenyl)-1,2,4-oxadiazol-3-yl)-6-oxopyridazin-1(6H)-yl)-N-ethylacetamide]"
12,≤ 10,"CCNC(=O)Cn1nc(-c2nnc(-c3cccc(Cl)c3)s2)ccc1=O [Compound 24, 2-(3-(5-(3-chlorophenyl)-1,3,4-thiadiazol-2-yl)-6-oxopyridazin-1(6H)-yl)-N-ethylacetamide]"
13,> 100,"Cn1cnc(-c2ccc(=O)n(CC(=O)NCc3ccccc3Cl)n2)c1 [Compound 55, N-(2-chlorobenzyl)-2-(3-(1-methyl-1H-imidazol-4-yl)-6-oxopyridazin-1(6H)-yl)acetamide]"
